Article PMC6136712, “Ex vivo drug sensitivity testing as a means for drug repurposing in esophageal adenocarcinoma” (PLoS ONE, 2018)
Structures can show the parent of a compound that is named as a salt. Where two headings read alike, the source gives them in different places.

System: normal esophageal epithelium cell line EACN42
Assay: FDA library drug sensitivity testing (CellTiter-Glo, 72 h), normal control cells
Format: cell-based, human
Set-up: key to DSS: modified drug sensitivity score (DSSmod) from dose-response curve fit
Details: for EC50: cell viability (ATP), max test concentration 10μM
Description: The normal esophageal epithelium cell line EACN42 was established in the Capobianco laboratory. The cell lines was derived from human normal epithelium and immortalized using HPV E6-E7.
Drug sensitivity testing (DST) was performed as described previously. […] Individual drugs were dissolved in 100% DMSO and tested in duplicates starting at a maximal test concentration of 10μM then over a 20,000-fold concentration range to generate dose response curves. Wells with assay buffer containing DMSO served as negative controls. 1000 exponentially growing cells were seeded per well in 384-well micro-titer plates and incubated in the presence of compounds in a humidified environment at 37°C and 5% CO2. After 72 hours of treatment, cell viability was assessed by measuring ATP levels via bioluminescence (CellTiter-Glo, Promega) according to manufactures recommendations. Interpretation of curve parameters was performed according to the modified drug sensitivity scoring (DSSmod) function developed by Swords et al. […] Given in this way, the sDSSmod incorporated information on each drug’s potency, efficacy, effect range and therapeutic index, making it possible to prioritize compounds over multiple parameters using a single numerical metric. […] All calculations and scoring routines are implemented in MatLab and additional curve fitting and statistical analyses are performed in GraphPad prism.

[1] = drug sensitivity score, EACN42 normal esophageal cells, 72 h
[2] = Homo sapiens, 72 h, EACN42 normal esophageal cells
[3] = EACN42 normal esophageal cells, 72 h

Row | Structure (SMILES) | DSS [1] | other results
1 | CN(N=O)C(=O)N[C@H]1C(O)O[C@H](CO)[C@@H](O)[C@@H]1O (mixture of isomers) [Streptozotocin] | 0 | –
2 | COc1cc2c(cc1O)CC[C@@H]1[C@@H]2CC[C@]2(C)[C@@H](O)CC[C@@H]12 [2-Methoxyestradiol] | 0.26 | EC50 [2]: > 10000 nM
3 | CC(=O)O[C@@]12CO[C@@H]1C[C@H](O)[C@@]1(C)C(=O)[C@H](O)C3=C(C)[C@@H](O)C[C@@](O)([C@@H](OC(=O)c4ccccc4)[C@H]21)C3(C)C [10-DAB] | 0.01 | EC50 [3]: 5480 nM
4 | CC(=O)O[C@H]1CC[C@@]2(C)C(=CC[C@@H]3[C@@H]2CC[C@]2(C)C(c4cccnc4)=CC[C@@H]32)C1 [Abiraterone Acetate] | 0 | –
5 | C[C@]12CC[C@H](O)CC1=CC[C@@H]1[C@@H]2CC[C@]2(C)C(c3cccnc3)=CC[C@@H]12 [Abiraterone] | 0 | –
6 | Cl.Nc1ncnc2nc[nH]c12 [Adenine hydrochloride] | 0 | EC50 [3]: 10 nM
7 | Nc1ncnc2nc[nH]c12.Nc1ncnc2nc[nH]c12.O=S(=O)(O)O [Adenine sulfate] | 0 | EC50 [3]: 250 nM
8 | Nc1ncnc2[nH]cnc12 [Adenine] | 0 | –
9 | CN(C)C/C=C/C(=O)Nc1cc2c(Nc3ccc(F)c(Cl)c3)ncnc2cc1O[C@H]1CCOC1 [Afatinib] | 0.12 | EC50 [2]: 4610 nM
10 | CN(C)c1nc(N(C)C)nc(N(C)C)n1 [Altretamine] | 0 | –
11 | CCC1(c2ccc(N)cc2)CCC(=O)NC1=O (stereo not shown) [Aminoglutethimide] | 0 | –
12 | O=C1CN2Cc3c(ccc(Cl)c3Cl)N=C2N1 [Anagrelide HCl] | 0 | EC50 [2]: 40 nM
13 | CC(C)(C#N)c1cc(Cn2cncn2)cc(C(C)(C)C#N)c1 [Anastrozole] | 0 | EC50 [2]: 1590 nM
14 | N#CC1(c2ccc(NC(=O)c3cccnc3NCc3ccncc3)cc2)CCCC1 [Apatinib] | 0 | EC50 [2]: 50 nM
15 | C[C@@H](O[C@H]1OCCN(Cc2n[nH]c(=O)[nH]2)[C@H]1c1ccc(F)cc1)c1cc(C(F)(F)F)cc(C(F)(F)F)c1 [Aprepitant] | 0 | –
16 | CO[C@H]1O[C@@H]2O[C@@]3(C)CC[C@H]4[C@H](C)CC[C@@H]([C@H]1C)[C@@]24OO3 [Artemether] | 0 | –
17 | CC(=O)Oc1ccccc1C(=O)O [Aspirin] | 0 | treatment response in words [3]: low or no activity
18 | COC(=O)N[C@H](C(=O)N[C@@H](Cc1ccccc1)[C@@H](O)CN(Cc1ccc(-c2ccccn2)cc1)NC(=O)[C@@H](NC(=O)OC)C(C)(C)C)C(C)(C)C.O=S(=O)(O)O [Atazanavir sulfate] | 0 | –
19 | CNC(=O)c1ccccc1Sc1ccc2c(/C=C/c3ccccn3)n[nH]c2c1 [Axitinib] | 0 | –
20 | CC[C@H]1OC(=O)[C@H](C)[C@@H](O[C@H]2C[C@@](C)(OC)[C@@H](O)[C@H](C)O2)[C@H](C)[C@@H](O[C@@H]2O[C@H](C)C[C@H](N(C)C)[C@H]2O)[C@](C)(O)C[C@@H](C)CN(C)[C@H](C)[C@@H](O)[C@]1(C)O [Azithromycin] | 0 | –
21 | Cl.Cn1c(CCCC(=O)O)nc2cc(N(CCCl)CCCl)ccc21 [Bendamustine HCL] | 0 | –
22 | O=C(O)CCCN1CCC(O[C@@H](c2ccc(Cl)cc2)c2ccccn2)CC1.O=S(=O)(O)c1ccccc1 [Bepotastine Besilate] | 0 | –
23 | COc1c2ccoc2cc2oc(=O)ccc12 [Bergapten] | 0 | EC50 [2]: 50 nM
24 | C[C@H]1C[C@H]2[C@@H]3CCC4=CC(=O)C=C[C@]4(C)[C@H]3C(=O)C[C@]2(C)[C@@]1(O)C(=O)CO [Betapar] | 0 | –
25 | C=C(c1ccc(C(=O)O)cc1)c1cc2c(cc1C)C(C)(C)CCC2(C)C [Bexarotene] | 0.12 | EC50 [2]: 4290 nM
26 | CC(O)(CS(=O)(=O)c1ccc(F)cc1)C(=O)Nc1ccc(C#N)c(C(F)(F)F)c1 (stereo not shown) [Bicalutamide] | 0 | –

Row | Structure (SMILES) | DSS [1] | other results
27 | CCN1CCN(c2cc(-c3ccc(F)cc3)c3c(n2)CCCCCC3)CC1 [Blonanserin] | 0 | EC50 [2]: 40 nM
28 | COc1cc(Nc2c(C#N)cnc3cc(OCCCN4CCN(C)CC4)c(OC)cc23)c(Cl)cc1Cl [Bosutinib] | 0 | –
29 | CS(=O)(=O)OCCCCOS(C)(=O)=O [Busulfan] | 0 | –
30 | CCCCCOC(=O)Nc1nc(=O)n([C@@H]2O[C@H](C)[C@@H](O)[C@H]2O)cc1F [Capecitabine] | 0 | EC50 [2]: 1000 nM
31 | CN1C2=CC(=O)/C(=N\NC(N)=O)C=C2CC1S(=O)(=O)[O-].[Na+] (stereo not shown) [Carbazochrome sodium sulfonate] | 0 | –
32 | N.N.O=C([O-])C1(C(=O)[O-])CCC1.[Pt+2] [Carboplatin] | 3.68 | treatment response in words [3]: minimal treatment effects; EC50 [3]: 2370 nM
33 | Cc1ccc(-c2cc(C(F)(F)F)nn2-c2ccc(S(N)(=O)=O)cc2)cc1 [Celecoxib] | 0 | –
34 | CCN(CC)CCOc1ccc(C(=C(Cl)c2ccccc2)c2ccccc2)cc1 [Clomifene citrate] | 0 | –
35 | Nc1cc(C(Cl)=C(Cl)Cl)c(S(N)(=O)=O)cc1S(N)(=O)=O [Clorsulon] | 0 | –
36 | CC(=O)OCC(=O)[C@@]1(O)CC[C@H]2[C@@H]3CCC4=CC(=O)CC[C@]4(C)[C@H]3C(=O)C[C@@]21C [Cortisone acetate] | 0 | –
37 | O=P1(N(CCCl)CCCl)NCCCO1 (stereo not shown) [Cyclophosphamide monohydrate] | – | DSS: 0
38 | CN(C)/N=N/c1[nH]cnc1C(N)=O [Dacarbazine] | 0 | –
39 | Nc1ncn([C@H]2C[C@H](O)[C@@H](CO)O2)c(=O)n1 [Decitabine] | 0 | EC50 (Homo sapiens, EACN42 normal esophageal cells, 72 h): 170 nM
40 | CC(=O)OCC(=O)[C@@]1(O)[C@H](C)C[C@H]2[C@@H]3CCC4=CC(=O)C=C[C@]4(C)[C@@]3(F)[C@@H](O)C[C@@]21C [Dexamethasone acetate] | 0 | –
41 | C[C@@H]1C[C@H]2[C@@H]3CCC4=CC(=O)C=C[C@]4(C)[C@@]3(F)[C@@H](O)C[C@]2(C)[C@@]1(O)C(=O)CO [Dexamethasone] | 0 | –
42 | CC/C(=C(/CC)c1ccc(O)cc1)c1ccc(O)cc1 [Diethylstilbestrol] | 0 | –
43 | CCN[C@H]1C[C@H](C)S(=O)(=O)c2sc(S(N)(=O)=O)cc21 [Dorzolamide HCL] | 0.01 | –
44 | C=C1/C(=C\C=C2/CCC[C@]3(C)[C@@H]([C@H](C)/C=C/[C@H](C)C(C)C)CC[C@@H]23)C[C@@H](O)C[C@@H]1O [Doxercalciferol] | 0 | EC50 [2]: 7 nM
45 | CC1=NN(c2ccc(C)c(C)c2)C(=O)/C1=N\Nc1cccc(-c2cccc(C(=O)O)c2)c1O [Eltrombopag] | 0.32 | EC50 [2]: 4660 nM
46 | CNC(=O)c1ccc(N2C(=S)N(c3ccc(C#N)c(C(F)(F)F)c3)C(=O)C2(C)C)cc1F [Enzalutamide] | 0 | –
47 | CNC[C@H](O)c1ccc(O)c(O)c1 [Epinephrine bitartrate] | 0 | –
48 | C#Cc1cccc(Nc2ncnc3cc(OCCOC)c(OCCOC)cc23)c1 [Erlotinib HCl] | 0 | –
49 | COc1ccc2[n-]c([S@@+]([O-])Cc3ncc(C)c(OC)c3C)nc2c1.[Na+] [Esomeprazole sodium] | 0 | –
50 | C[C@]12CC[C@@H]3c4ccc(O)cc4CC[C@H]3[C@@H]1CC[C@@H]2O [Estradiol] | 0 | –
51 | C[C@]12CC[C@@H]3c4ccc(O)cc4CC[C@H]3[C@@H]1CCC2=O [Estrone] | 0 | –
52 | O=C(c1ccc(OCCN2CCCCC2)cc1)c1c(-c2ccc(O)cc2)sc2cc(O)ccc12 [Evista] | 0 | –
